Experimental data from article PMC3369218 (Biochemistry, 2012).
Like-named read-outs stand apart in the source and are kept apart here.

Legend:
[1] = molecular target: WT DaCld (Dechloromonas aromatica, UniProt Q47CX0); assay: Equilibrium binding of ligands, spectrophotometric titration, WT DaCld
[2] = molecular target: DaCld(R183Q) (Dechloromonas aromatica, UniProt Q47CX0, R217Q); assay: biochemical; format: binding
[3] = molecular target: DaCld(R183A) (Dechloromonas aromatica, UniProt Q47CX0, R217A); assay: biochemical; format: binding
Chain of DaCld(R183A) (Q47CX0 35-282 R217A): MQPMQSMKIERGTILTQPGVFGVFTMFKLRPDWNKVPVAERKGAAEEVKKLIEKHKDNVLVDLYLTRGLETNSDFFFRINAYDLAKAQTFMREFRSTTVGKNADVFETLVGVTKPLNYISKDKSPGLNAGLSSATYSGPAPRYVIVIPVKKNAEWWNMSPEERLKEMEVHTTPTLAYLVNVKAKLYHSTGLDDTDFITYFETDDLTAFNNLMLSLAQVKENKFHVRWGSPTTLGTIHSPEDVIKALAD

[4] = molecular target: DaCld(R183K) (Dechloromonas aromatica, UniProt Q47CX0, R217K); assay: biochemical; format: binding
Chain of DaCld(R183K) (Q47CX0 35-282 R217K): as the sequence (Q47CX0 35-282 R217A) above, with A183K counted along it

[5] = cited from earlier work

Chain of DaCld(R183Q) (Q47CX0 35-282 R217Q): as the sequence (Q47CX0 35-282 R217A) above, with A183Q counted along it
Chain of WT DaCld (Q47CX0 32-282): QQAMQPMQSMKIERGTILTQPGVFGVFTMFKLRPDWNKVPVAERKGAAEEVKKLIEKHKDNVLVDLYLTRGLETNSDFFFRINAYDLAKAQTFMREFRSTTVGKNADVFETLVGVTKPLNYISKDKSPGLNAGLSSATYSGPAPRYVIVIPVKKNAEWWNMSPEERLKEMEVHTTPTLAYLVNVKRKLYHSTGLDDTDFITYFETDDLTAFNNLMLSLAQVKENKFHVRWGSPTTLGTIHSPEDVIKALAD

Question: For `[N-]=[N+]=[N-]` [N3^–, azide], which Kd ([1]; read-out: Maximal KD, pH 7) is on record?
Answer: 8.3 ± 0.1 µM

Question: With `c1c[nH]cn1` [imidazole] as the compound, how does the Kd [2] read?
Answer: 27 ± 1 µM

Question: And the “pKa1 of pKD versus pH curve” value [2]?
Answer: 6.7 ± 0.1

Question: What about the Kd [3] of the same compound?
Answer: 21 ± 1 µM

Question: And the “pKa1 of pKD versus pH curve” value [3]?
Answer: 6.8 ± 0.1

Question: And the Kd [4]?
Answer: 18 ± 1 µM

Question: And the Kd [1]?
Answer: 9.6 ± 0.3 µM

Question: Which reduction potential [5] does the source give for Myoglobin here?
Answer: 46 mV
